Test results published in US20190292246A1, “COMBINATION THERAPY OF A CELL BASED THERAPY AND A MICROGLIA IMHIBITOR” (JUNO THERAPEUTICS, INC., priority 2016, published 2019).

Test: Non-human primate combination therapy: PLX3397, CD20 CAR T cells and cyclophosphamide preconditioning
Assay type: in vivo
Details: PLX3397 40 mg/kg twice daily from 30 days before to 21 days after cells; Rhesus macaques
Method: Animal subjects of the non-human primate (NHP), Macaca mulatta, which in aspects closely recapitulates the human immune system are administered cell therapy (T cells expressing a CAR targeting CD20), following administration of an agent to ameliorate toxicity. Thirty days prior to the initiation of cell therapy, T cells are isolated from peripheral blood of Rhesus macaques (n=3) and engineered via transduction with a viral vector encoding a CD20 chimeric antigen receptor (CAR), which is a tumor-associated or tumor-specific antigen, and optionally a detectable marker, such as GFP. […]
After preconditioning treatment, subjects receive a first dose of CAR-expressing cells by infusion that is less than or equal to about 1×10^7 cells/kg body weight at day 0. […] Optionally, at seven days after the administration of the of cells, the CAR-expressing cells are detected by flow cytometry and quantitative polymerase chain reaction (qPCR) to measure in vivo proliferation and persistence of the administered cells and B cell aplasia. […] Recipient animals are monitored for clinical signs and symptoms of one or more toxic outcomes or toxicities such as CRS and neurotoxicity, and data are collected longitudinally to determine CAR T cell expansion and persistence, B cell aplasia, as well as clinical labs of CRS and cytokine levels. […]

FC(F)(F)c1ccc(CNc2ccc(Cc3c[nH]c4ncc(Cl)cc34)cn2)cn1 [PLX3397, 5-((5-chloro-1H-pyrrolo[2,3-b]pyridin-3-yl)methyl)-N-((6-(trifluoromethyl)pyridin-3-yl)methyl)pyridin-2-amine]
symptoms of toxicity (CRS, neurotoxicity) after CAR T cell therapy: reduced or prevented
